Experimental data from patent US20070134326A1, “Composition for releasing a weak base for an extended period of time” (priority 2003, published 2007).

Key:
pH dependent solubility = assay type: physicochemical; conditions: around pH 2 vs around pH 7
glucose utilization = conditions: PK/PD model estimate, diabetic patients; FDA Briefing Document, Avandia IND 43,468; cited from earlier work

## CN(CCOc1ccc(CC2SC(=O)NC2=O)cc1)c1ccccn1 (centres unmarked) [Compound A, 5-[4-[2-(N-methyl-N-(2pyridyl)amino)ethoxy]benzyl]thiazolidine-2,4-dione]
pH dependent solubility
  pH dependent solubility: more soluble in the acidic conditions of the stomach (around pH 2) than in the near neutral conditions of the lower intestine (around pH 7)
Glucose utilization
  concentration associated with half-maximal stimulation (SC50) of glucose utilization: ~52 ng/mL
